# Laboratory results taken from ChEMBL document CHEMBL1201862, “PubChem BioAssay data set” (2004).
# Active and inactive are the calls of the source.
# Experiments:
# Cytochrome P450 2D6 = Cytochrome P450 2D6 (Homo sapiens, UniProt P10635); experiment: qHTS Assay for Inhibitors and Substrates of Cytochrome P450 2D6. [Related pubchem assays: 410 ]; type: ADME; conditions: read-out: Potency
# [1] = target: T1, Eukaryotic translation initiation factor 2-alpha kinase 3 (Homo sapiens, UniProt Q9NZJ5); experiment: Dose response cell-based high-throughput screening assay to measure PERK inhibition. [Related pubchem assays: 1416 ]; type: functional
# T1 sequence (Q9NZJ5 whole entry): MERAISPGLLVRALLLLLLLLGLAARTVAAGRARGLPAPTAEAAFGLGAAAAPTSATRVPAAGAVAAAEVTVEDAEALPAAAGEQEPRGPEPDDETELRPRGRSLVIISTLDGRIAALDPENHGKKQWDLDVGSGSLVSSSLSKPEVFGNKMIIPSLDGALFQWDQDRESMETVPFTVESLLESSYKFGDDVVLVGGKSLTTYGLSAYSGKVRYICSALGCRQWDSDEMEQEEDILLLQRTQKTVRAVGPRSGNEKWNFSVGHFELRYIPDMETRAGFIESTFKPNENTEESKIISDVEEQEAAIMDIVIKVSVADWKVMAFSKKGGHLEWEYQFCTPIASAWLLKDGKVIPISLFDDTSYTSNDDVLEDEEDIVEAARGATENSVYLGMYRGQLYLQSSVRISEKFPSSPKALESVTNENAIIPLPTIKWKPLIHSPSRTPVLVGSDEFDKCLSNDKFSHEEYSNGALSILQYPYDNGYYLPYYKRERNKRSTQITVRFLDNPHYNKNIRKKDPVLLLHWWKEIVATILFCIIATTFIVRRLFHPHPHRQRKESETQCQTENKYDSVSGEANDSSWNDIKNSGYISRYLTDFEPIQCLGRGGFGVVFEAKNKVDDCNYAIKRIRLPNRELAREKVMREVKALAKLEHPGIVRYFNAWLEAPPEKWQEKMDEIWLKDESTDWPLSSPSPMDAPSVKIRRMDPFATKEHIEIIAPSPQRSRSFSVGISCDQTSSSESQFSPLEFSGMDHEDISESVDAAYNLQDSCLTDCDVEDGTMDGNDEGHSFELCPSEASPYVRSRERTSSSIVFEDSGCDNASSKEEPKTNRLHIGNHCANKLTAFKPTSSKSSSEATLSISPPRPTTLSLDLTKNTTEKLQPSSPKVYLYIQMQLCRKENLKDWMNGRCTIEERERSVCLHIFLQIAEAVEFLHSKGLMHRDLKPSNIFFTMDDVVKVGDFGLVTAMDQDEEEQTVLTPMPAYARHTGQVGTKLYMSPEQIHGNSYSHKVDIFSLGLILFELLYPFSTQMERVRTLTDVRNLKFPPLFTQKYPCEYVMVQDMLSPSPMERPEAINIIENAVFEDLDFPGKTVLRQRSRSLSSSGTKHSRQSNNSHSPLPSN
# cells = type: functional, cell-based; conditions: HEK-CNG
# [2] = target: T1, Eukaryotic translation initiation factor 2-alpha kinase 3; experiment: Counterscreen assay for PERK inhibitors: Dose response cell-based high throughput screening assay to measure inhibition of PERK at 6 hours. [Related pubchem assays: 1522, 1416 ]; type: functional
# BJ [3] = experiment: cytotoxicity toward BJ-TERT fibroblasts, dose response, cell-based, RAS-independent, luminescence (AID 1933); type: functional; conditions: Homo sapiens
# [4] = cytotoxicity toward DRD oncogenic fibroblasts, dose response, cell-based, non-viral oncogenic, luminescence (AID 1934); type: functional; conditions: Homo sapiens
# Galanin receptor type 3 = target: T2, Galanin receptor type 3 (Homo sapiens, UniProt O60755); experiment: Fluorescence-based cell-based primary high throughput dose response assay to identify antagonists of the Galanin Receptor 3 (GalR3).; type: functional
# T2 sequence (O60755 whole entry): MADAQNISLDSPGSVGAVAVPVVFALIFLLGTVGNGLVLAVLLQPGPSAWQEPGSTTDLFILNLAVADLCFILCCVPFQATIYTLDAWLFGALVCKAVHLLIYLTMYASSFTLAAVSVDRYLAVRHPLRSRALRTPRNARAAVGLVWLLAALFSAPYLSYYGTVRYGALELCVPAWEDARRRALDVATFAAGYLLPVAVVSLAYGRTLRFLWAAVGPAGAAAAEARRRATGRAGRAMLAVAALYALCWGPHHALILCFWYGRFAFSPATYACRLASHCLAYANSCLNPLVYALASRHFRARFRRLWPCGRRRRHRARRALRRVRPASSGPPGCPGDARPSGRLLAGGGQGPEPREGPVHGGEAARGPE
# [5] = target: Cyclin-dependent kinase 5/CDK5 activator 1 (Homo sapiens, UniProt Q00535); experiment: CDK5/p35 kinase inhibitors, dose response, biochemical, cherry-picked samples, set 2 (AID 504545)
# BJ [6] = experiment: cytotoxicity toward BJ-TERT-LT-ST fibroblasts, dose response, cell-based, RAS-independent, luminescence (AID 1935); type: functional; conditions: Homo sapiens;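 also: BJ fibroblasts immortalized with TERT plus LT and ST oncogenes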
# BJ [7] = experiment: cells; type: functional, cell-based; conditions: Homo sapiens
# Chaperone protein dnaK = Chaperone protein dnaK (Escherichia coli, UniProt C3TRK2); experiment: DnaK beta-domain binding affinity, SAR follow-up, orthogonal assay for DnaK modulator project, biophysical, isothermal titration calorimetry, full-length DnaK (AID 1495)
# [8] = cytotoxicity in KRAS-transformed pancreatic duct cells, primary screen, cell-based, fluorescence, HTS (AID 431); type: functional; conditions: Homo sapiens;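 also: cell line used: HPDE-C7K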
# [9] = Counterscreen for inhibitors of Trypanosoma brucei methionyl tRNA synthetase (MetRS): Luminescence-based cell-based high throughput dose response assay to identify compounds that are cytotoxic to Jurkat human T lymphocyte cells.; type: functional; conditions: jurkat
# [10] = cytotoxicity in HPDE-C7 cells, cell-based, fluorescence, HTS (AID 430); type: functional; conditions: Homo sapiens
# [11] = target: T3, Methionyl-tRNA synthetase, putative (Trypanosoma brucei brucei, UniProt Q38C91); type: functional, Trypanosoma brucei brucei strain 927/4 GUTat10.1
# T3 sequence (Q38C91 whole entry): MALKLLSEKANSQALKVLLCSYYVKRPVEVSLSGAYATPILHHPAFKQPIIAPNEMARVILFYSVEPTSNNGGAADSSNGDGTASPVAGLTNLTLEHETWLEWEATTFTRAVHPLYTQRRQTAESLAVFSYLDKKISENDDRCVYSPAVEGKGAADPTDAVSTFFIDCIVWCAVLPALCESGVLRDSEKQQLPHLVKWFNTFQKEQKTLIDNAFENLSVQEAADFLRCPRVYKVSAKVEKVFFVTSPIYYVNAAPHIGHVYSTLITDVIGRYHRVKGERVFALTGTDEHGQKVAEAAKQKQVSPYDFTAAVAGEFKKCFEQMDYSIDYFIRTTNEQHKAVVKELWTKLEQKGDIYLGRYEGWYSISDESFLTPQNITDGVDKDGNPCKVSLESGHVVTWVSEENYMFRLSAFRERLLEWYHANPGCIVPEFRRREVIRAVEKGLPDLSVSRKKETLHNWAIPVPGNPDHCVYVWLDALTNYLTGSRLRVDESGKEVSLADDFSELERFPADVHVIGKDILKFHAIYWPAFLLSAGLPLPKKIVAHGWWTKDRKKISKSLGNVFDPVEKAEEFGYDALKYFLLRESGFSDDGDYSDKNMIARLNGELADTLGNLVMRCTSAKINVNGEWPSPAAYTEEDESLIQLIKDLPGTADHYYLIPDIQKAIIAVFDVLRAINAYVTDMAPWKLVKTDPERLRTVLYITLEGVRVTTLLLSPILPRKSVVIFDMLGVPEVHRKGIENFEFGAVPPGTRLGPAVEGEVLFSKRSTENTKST
# [12] = target: T4, Alkaline phosphatase, tissue-nonspecific isozyme (Homo sapiens, UniProt P05186)
# T4 sequence (P05186 whole entry): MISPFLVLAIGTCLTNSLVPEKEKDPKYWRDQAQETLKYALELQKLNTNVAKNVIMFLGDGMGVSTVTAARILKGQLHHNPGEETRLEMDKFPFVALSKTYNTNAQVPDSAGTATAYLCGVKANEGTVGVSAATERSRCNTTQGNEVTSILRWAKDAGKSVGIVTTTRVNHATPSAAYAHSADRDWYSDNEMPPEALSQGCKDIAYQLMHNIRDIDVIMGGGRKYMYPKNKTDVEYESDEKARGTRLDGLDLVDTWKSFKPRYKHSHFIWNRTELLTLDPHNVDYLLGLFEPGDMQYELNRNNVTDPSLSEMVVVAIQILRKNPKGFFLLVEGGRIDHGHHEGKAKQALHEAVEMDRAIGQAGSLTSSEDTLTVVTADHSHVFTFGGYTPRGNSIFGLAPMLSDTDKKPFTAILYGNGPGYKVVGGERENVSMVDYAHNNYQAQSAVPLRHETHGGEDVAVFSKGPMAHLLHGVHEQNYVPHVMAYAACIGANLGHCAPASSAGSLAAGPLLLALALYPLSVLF
# [13] = Luminescence Cell-Based Dose Retest to Confirm Inhibitors of Cancer Stem Cells. [Related pubchem assays (depositor defined):AID2717, AID2721]; type: functional; conditions: Homo sapiens
# [14] = target: T3, Methionyl-tRNA synthetase, putative; type: functional, Trypanosoma brucei brucei strain 927/4 GUTat10.1; remark: listed apart in the source
# Chaperone protein dnaK, sequence (C3TRK2 whole entry): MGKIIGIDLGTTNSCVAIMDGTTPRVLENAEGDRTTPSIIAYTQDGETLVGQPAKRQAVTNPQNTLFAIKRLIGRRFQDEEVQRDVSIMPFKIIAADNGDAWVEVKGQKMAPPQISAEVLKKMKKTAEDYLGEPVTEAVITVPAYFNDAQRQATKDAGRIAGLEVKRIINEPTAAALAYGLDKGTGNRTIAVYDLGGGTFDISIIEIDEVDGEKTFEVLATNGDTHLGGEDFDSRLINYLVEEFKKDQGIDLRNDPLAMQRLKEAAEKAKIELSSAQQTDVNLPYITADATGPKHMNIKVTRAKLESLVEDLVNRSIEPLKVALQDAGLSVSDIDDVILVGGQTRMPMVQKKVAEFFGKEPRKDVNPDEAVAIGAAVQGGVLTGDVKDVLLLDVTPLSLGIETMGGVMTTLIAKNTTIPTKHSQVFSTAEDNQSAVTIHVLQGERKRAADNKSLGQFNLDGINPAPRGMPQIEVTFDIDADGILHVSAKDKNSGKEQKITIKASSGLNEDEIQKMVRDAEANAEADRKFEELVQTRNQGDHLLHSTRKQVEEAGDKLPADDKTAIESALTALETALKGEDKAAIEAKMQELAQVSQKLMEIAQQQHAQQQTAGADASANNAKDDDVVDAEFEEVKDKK
# Cytochrome P450 2D6, sequence (P10635 whole entry): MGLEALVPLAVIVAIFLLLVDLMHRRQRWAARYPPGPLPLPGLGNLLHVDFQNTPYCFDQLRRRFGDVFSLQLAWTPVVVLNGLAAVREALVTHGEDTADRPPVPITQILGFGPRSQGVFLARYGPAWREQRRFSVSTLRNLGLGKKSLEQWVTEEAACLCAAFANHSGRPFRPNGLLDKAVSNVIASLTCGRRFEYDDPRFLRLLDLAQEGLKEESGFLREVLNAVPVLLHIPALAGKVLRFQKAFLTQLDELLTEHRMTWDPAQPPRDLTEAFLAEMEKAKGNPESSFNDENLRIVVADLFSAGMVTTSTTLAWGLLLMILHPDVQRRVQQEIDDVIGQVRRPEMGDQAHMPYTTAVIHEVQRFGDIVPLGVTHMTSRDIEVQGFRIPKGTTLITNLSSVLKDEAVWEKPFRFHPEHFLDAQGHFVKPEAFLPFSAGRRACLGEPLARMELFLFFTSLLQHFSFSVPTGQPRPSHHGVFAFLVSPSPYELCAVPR
# Cyclin-dependent kinase 5/CDK5 activator 1, sequence (Q00535 whole entry): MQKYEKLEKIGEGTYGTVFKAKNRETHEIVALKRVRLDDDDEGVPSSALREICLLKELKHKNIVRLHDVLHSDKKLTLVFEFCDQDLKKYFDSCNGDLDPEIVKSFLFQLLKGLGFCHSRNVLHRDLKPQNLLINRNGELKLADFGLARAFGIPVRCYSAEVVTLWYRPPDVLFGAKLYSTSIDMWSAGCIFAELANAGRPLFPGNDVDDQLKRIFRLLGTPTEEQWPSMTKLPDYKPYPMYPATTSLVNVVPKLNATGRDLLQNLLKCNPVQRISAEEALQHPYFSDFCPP
# Cyclin-dependent kinase 5/CDK5 activator 1, sequence (Q15078 whole entry, further chain): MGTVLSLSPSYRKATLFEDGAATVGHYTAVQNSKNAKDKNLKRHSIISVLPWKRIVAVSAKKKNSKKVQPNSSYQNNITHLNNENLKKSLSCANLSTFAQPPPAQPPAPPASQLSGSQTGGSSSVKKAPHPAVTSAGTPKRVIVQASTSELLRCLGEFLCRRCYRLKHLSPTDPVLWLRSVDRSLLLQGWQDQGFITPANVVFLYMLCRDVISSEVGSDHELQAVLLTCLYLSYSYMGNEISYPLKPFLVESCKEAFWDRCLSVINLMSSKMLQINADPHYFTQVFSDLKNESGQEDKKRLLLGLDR
structure (smiles),measurement,setting,value
COc1cc(C(=O)O[C@@H]2CC(C)=CC[C@@]3(C)CC[C@](O)(C(C)C)[C@H]23)ccc1O,AC50,Cytochrome P450 2D6,31.6 µM (inconclusive)
NC(=O)c1cn(C2OC(CO)C(O)C2O)c2ncnc(N)c12 (stereo not drawn),EC50,[1],> 55.7 µM (not active)
same,EC50,cells,> 29.9 µM (inactive)
same,EC50,[2],> 55.7 µM (not active)
same,EC50,BJ [3],0.874 µM (active)
same,EC50,[4],1.09 µM (active)
same,IC50,Galanin receptor type 3,1.31 µM (active)
same,AC50,[5],14.6 µM (active)
same,EC50,BJ [6],1.19 µM (inconclusive)
same,EC50,BJ [7],1.27 µM (inconclusive)
O=C(NCc1c(Cl)cccc1Cl)c1cccs1,Kd,Chaperone protein dnaK,1.5 µM (active)
Clc1ccc(COC(Cn2ccnc2)c2ccc(Cl)cc2Cl)c(Cl)c1 (stereo not drawn) [MICONAZOLE NITRATE],EC50,[8],7.45 µM (active)
same,IC50,[9],28.1 µM (inactive)
same,EC50,[10],8.19 µM (active)
same,IC50,[11],13.2 µM (inactive)
same,EC50,[12],70.6 µM (not active)
same,AC50,[13],6.36 µM (active)
same,IC50,[14],11 µM (inactive)
